By IC50 is commonly meant the concentration that inhibits the measured activity by half.

Consider 3 compounds from patent US8569296B2, “PI3K (delta) selective inhibitors” (Xcovery Holding Company, LLC, priority 2009, dated 2013).

The structures appear in SMILES notation. Where two headings read alike, the source gives them in different places.

Assay in all cases: Kinase binding assay (kinase-tagged T7 phage / qPCR, Ambit Biosciences)
One experiment concerns the target T1, PI3Kα (Homo sapiens, UniProt P42336).
T1 construct: purchased Ambit Biosciences; host or cells: E. coli BL21-derived host (T7 phage) or HEK-293
The following applies: read-out: inhibitory activity (IC50) against PI3Kα. The method, then:
(§1) Assays were performed as described in Fabian et al. (2005) Nature Biotechnology, vol. 23, p. 329 and in Karaman et al. (2008) Nature Biotechnology, vol. 26, p. 127.
(§2) Kinase assays. For most assays, kinase-tagged T7 phage strains were grown in parallel in 24-well blocks in an E. coli host derived from the BL21 strain. E. coli were grown to log-phase and infected with T7 phage from a frozen stock (multiplicity of infection ˜0.1) and incubated with shaking at 32° C. until lysis (˜90 minutes). The lysates were centrifuged (6,000×g) and filtered ([…]) to remove cell debris. The remaining kinases were produced in HEK-293 cells and subsequently tagged with DNA for qPCR detection. Streptavidin-coated magnetic beads were treated with biotinylated small molecule ligands for 30 minutes at room temperature to generate affinity resins for kinase assays. The liganded beads were blocked with excess biotin and washed with blocking buffer (SeaBlock (Pierce), 1% BSA, 0.05% Tween 20, 1 mM DTT) to remove unbound ligand and to reduce non-specific phage binding. Binding reactions were assembled by combining kinases, liganded affinity beads, and test compounds in 1× binding buffer (20% SeaBlock, 0.17×PBS, 0.05% Tween 20, 6 mM DTT). Test compounds were prepared as 40× stocks in 100% DMSO and directly diluted into the assay. All reactions were performed in polypropylene 384-well plates in a final volume of 0.04 ml. The assay plates were incubated at room temperature with shaking for 1 hour and the affinity beads were washed with wash buffer (1×PBS, 0.05% Tween 20). The beads were then re-suspended in elution buffer (1×PBS, 0.05% Tween 20, 0.5 mM non-biotinylated affinity ligand) and incubated at room temperature with shaking for 30 minutes. The kinase concentration in the eluates was measured by qPCR.
(§3) Compounds were tested using the above assay at Ambit Biosciences (San Diego, Calif., USA).

In another experiment the target is T2, PI3Kβ (Homo sapiens, UniProt P42338).
T2 construct: purchased Ambit Biosciences; host or cells: E. coli BL21-derived host (T7 phage) or HEK-293
The following applies: read-out: inhibitory activity (IC50) against PI3Kβ. The method, then:
as §1, §2, §3

The target in the next experiment is T3, PI3Kγ (Homo sapiens, UniProt P48736).
T3 construct: purchased Ambit Biosciences; host or cells: E. coli BL21-derived host (T7 phage) or HEK-293
The following applies: read-out: inhibitory activity (IC50) against PI3Kγ. How it is done:
as §1, §2, §3

The next experiment has as its target T4, PI3Kδ (Homo sapiens, UniProt O00329).
T4 construct: purchased Ambit Biosciences; host or cells: E. coli BL21-derived host (T7 phage) or HEK-293
T4 sequence (O00329 1-1044): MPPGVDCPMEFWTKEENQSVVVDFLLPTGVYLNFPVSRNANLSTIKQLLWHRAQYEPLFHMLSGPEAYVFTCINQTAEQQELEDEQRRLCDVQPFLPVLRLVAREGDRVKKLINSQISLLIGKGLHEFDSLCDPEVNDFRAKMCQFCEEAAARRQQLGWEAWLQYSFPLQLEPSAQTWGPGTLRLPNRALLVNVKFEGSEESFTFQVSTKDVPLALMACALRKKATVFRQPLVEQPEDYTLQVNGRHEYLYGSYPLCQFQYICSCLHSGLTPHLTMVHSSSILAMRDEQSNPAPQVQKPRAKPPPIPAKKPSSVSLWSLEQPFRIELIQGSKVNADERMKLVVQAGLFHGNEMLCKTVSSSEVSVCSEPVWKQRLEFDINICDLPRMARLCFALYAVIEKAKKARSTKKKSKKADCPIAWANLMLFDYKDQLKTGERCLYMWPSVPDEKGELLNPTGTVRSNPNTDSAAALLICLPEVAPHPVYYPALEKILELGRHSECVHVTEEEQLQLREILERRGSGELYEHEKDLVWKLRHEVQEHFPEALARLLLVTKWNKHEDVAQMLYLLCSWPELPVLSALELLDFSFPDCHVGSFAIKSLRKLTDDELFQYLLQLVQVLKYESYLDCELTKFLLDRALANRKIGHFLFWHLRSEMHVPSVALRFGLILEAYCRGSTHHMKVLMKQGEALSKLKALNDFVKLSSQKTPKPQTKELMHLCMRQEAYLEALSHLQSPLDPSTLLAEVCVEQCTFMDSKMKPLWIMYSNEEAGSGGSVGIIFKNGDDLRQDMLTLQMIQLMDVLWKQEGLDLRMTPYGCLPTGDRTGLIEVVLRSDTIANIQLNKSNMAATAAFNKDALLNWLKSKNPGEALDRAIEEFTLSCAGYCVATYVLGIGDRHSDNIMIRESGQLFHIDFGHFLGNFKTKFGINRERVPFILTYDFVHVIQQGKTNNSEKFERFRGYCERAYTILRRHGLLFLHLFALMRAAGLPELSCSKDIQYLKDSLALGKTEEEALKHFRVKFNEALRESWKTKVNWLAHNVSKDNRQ
How it is done:
as §1, §2, §3

A further experiment addresses T5, mTOR (Homo sapiens, UniProt P42345).
T5 construct: purchased Ambit Biosciences; host or cells: E. coli BL21-derived host (T7 phage) or HEK-293
The note with it: read-out: inhibitory activity (IC50) against mTOR. How it is done:
as §1, §2, §3

T1 sequence (P42336 whole entry): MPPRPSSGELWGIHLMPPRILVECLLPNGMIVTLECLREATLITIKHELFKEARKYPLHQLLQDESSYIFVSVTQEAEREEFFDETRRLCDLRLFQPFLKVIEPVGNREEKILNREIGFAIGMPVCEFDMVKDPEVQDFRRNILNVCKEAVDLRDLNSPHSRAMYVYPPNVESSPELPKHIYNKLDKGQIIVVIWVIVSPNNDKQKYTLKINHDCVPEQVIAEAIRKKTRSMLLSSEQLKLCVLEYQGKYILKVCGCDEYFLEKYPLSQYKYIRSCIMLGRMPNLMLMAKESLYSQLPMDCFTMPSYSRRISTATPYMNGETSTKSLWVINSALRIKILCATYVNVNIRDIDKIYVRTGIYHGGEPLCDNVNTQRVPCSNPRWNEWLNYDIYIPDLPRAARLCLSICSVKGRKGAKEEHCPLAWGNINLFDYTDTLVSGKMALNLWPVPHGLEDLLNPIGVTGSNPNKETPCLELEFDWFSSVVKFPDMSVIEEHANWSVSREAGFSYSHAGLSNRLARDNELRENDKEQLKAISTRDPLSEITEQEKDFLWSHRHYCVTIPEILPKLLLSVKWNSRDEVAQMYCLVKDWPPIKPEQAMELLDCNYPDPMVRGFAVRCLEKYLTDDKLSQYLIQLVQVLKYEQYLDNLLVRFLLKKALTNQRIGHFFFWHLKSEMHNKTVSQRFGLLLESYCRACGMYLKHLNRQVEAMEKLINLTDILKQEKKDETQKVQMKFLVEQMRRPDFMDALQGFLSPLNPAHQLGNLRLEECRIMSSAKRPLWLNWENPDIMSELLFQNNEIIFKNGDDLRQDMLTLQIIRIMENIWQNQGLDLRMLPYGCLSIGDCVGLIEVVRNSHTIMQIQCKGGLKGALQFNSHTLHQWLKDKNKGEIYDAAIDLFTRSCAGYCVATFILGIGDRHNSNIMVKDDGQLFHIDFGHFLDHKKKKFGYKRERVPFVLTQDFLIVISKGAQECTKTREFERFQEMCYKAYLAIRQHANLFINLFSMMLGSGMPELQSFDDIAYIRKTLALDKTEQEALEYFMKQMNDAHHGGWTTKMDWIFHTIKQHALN
T3 sequence (P48736 whole entry): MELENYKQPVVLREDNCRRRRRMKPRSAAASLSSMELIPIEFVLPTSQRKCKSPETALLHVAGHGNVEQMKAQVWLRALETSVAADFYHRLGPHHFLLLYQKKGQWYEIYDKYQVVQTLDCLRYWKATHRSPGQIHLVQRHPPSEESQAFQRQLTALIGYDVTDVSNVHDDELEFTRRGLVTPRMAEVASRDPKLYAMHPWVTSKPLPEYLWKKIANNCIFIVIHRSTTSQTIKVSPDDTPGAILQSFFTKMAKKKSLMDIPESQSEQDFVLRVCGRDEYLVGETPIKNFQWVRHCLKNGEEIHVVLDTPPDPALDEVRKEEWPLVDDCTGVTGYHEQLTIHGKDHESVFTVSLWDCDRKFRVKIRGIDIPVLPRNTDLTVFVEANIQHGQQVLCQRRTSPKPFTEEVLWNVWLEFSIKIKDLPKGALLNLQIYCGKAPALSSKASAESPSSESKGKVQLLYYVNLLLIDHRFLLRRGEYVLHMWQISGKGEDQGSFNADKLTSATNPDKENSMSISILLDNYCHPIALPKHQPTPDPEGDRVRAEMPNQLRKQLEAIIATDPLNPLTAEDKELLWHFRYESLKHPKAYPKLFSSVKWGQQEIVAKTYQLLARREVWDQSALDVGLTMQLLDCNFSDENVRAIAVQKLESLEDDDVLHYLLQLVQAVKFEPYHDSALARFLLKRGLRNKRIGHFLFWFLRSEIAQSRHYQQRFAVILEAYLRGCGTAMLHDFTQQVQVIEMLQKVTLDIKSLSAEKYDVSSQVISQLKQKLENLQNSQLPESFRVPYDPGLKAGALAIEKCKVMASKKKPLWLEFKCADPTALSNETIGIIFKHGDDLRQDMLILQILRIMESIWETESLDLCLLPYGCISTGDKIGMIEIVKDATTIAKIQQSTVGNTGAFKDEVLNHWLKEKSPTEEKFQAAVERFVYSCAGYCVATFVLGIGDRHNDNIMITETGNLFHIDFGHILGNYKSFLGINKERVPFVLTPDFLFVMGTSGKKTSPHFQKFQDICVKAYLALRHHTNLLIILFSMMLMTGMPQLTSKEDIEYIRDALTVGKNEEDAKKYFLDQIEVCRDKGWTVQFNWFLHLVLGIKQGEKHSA
T2 sequence (P42338 whole entry): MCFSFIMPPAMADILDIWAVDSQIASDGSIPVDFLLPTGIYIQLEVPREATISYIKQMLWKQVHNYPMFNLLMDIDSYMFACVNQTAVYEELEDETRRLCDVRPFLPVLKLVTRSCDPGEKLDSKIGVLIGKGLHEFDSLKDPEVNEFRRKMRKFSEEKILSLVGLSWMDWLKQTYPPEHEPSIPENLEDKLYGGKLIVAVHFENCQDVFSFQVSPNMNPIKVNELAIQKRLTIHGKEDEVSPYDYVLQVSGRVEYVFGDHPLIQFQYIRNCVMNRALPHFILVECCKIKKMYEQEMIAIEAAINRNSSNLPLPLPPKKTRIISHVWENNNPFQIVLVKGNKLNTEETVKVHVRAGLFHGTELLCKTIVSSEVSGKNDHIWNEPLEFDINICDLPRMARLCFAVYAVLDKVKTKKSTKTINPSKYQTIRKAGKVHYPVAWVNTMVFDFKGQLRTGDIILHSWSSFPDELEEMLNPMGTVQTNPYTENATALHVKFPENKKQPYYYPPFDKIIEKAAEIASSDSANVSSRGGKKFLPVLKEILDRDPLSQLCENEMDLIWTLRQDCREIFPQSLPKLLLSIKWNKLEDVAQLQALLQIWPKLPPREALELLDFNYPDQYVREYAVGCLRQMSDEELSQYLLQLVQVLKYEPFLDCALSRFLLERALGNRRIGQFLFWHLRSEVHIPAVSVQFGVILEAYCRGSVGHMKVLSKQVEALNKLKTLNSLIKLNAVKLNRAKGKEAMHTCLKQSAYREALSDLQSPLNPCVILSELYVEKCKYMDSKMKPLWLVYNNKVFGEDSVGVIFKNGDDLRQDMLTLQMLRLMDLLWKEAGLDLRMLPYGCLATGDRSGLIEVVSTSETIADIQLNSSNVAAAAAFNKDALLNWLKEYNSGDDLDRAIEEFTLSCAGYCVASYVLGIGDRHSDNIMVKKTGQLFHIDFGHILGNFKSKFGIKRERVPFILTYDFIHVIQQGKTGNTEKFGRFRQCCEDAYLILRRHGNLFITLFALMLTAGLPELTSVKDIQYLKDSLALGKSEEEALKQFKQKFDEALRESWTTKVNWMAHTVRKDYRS

For `OCCn1cnc2c(-n3c(C(F)F)nc4ccccc43)nc(N3CCOCC3)nc21` [Example 2, 2-{6-[2-(difluoromethyl)benzimidazol-1-yl]-2-morpholin-4-ylpurin-9-yl}ethan-1-ol], the half-inhibitory concentration (IC50) at PI3Kα was greater than 100 nM; on PI3Kβ, greater than 100 nM; at PI3Kγ it was greater than 100 nM; at PI3Kδ it was less than 100 nM; on mTOR, greater than 100 nM.

As to `COc1cccc2c1nc(C(F)F)n2-c1nc(N2CCOCC2)nc2c1ncn2C1CCOCC1` [Example 21, 1-(9-(2H-3,4,5,6-tetrahydropyran-4-yl)-2-morpholin-4-ylpurin-6-yl)-2-(difluoromethyl)-4-methoxybenzimidazole], the IC50 on PI3Kα was less than 100 nM; at PI3Kγ, less than 100 nM; on PI3Kδ (read-out: IC50, inhibition against PI3Kδ), less than 100 nM.

On to `Cc1nc2ccccc2n1-c1nc(N2CCOCC2)nc2c1ncn2CCO` [Example 2d, reference compound], for which the “inhibition against PI3Kδ” value on PI3Kδ (at up to 100 nM) is “did not show significant inhibition”.
